# Experimental data as given in patent publication US20070078083A1, “MODULATION OF NEUORGENESIS BY HDac INHIBITION” (BrainCells, Inc., priority 2005, published 2007).
# pEC50, pIC50: −log10 of the molar value.
# Tests used:
# [1] = tested on: KA, AMPA, and NMDA iGlu receptors; conditions: cited from earlier work
# [2] = tested on: human neural stem cells (hNSCs); test: Neuronal differentiation of human neural stem cells (TUJ-1 staining); type: cell-based; conditions: for differentiation along a neuronal lineage (in words): hNSCs
# [3] = tested on: human neural stem cells (hNSCs); test: Astrocyte differentiation of hNSCs (GFAP staining); type: cell-based; conditions: cultured hNSCs
# Source text: Results are shown in FIGS. 2 and 11, which show the lack of astrocyte differentiation of human neural stem cells in the presence of trichostatin A and valproic acid, respectively.
# [4] = tested on: rat NeuroD1, GluR2, NFH and GAP43 promoters; test: In vitro rodent gene reporter assay in rNSC; type: cell-based; conditions: 2 days incubation
# Source text: Briefly, cultured rodent neural stem cells (rNSC) were transfected by electroporation with a vectors containing promoters specific for the rat NeuroD1, GluR2, NFH and GAP43 genes linked to the fluorescent reporter protein DsRed. All gene reporter constructs were cloned in the same lentiviral vector backbone, and mixed with Nucleofactor solution for electroporation. A GFP vector control was used in parallel to visualize effectiveness of electroporation. Transfected rNSCs were then suspended in test media containing varying concentrations of the HDac inhibitors trichostatin A, valproic acid, MS-275 or apicidin, and a mixture of 0.5 μg renilla luciferase and 5 μg promoter-specific […] luciferase. The cells were incubated in 5% CO2 at 37° C. for 2 days, and then lysed, whereupon the cell extracts were read on a Tecan Genios Pro reader to detect the promoter-specific activation of the reporter constructs.
# [5] = tested on: neural stem and/or progenitor cells in the dentate gyrus; test: In vivo chronic dosing study, BrdU-positive cells in dentate gyrus; parameters: species or system rat; conditions: male Fischer F344 rats, 300 mg/kg for 28 days, vs vehicle
# Procedure: Male Fischer F344 rats were treated with 300 mg/kg of valproic acid for 28 days, and then anesthetized and killed by transcardial perfusion of 4% paraformaldehyde at day 28. Brains were rapidly removed and stored in 4% paraformaldehyde for 24 hours and then equilibrated in phosphate buffered 30% sucrose. Free floating 40 micron sections were collected on a freezing microtome and stored in cyroprotectant. Antibodies against BrdU and cells types of interest (e.g., neurons, astrocytes, oligodendrocytes, endothelial cells) were used for detection of cell survival and differentiation. […] The proportion of BrdU cells displaying a lineage-specific phenotype was determined by scoring the co-localization of cell phenotype markers with BrdU using confocal microscopy. […] When possible, 100 or more BrdU-positive cells were scored for each maker per animal. Each cell was manually examined in first full “z”-dimension and only those cells for which the nucleus was unambiguously associated with the lineage-specific marker were scored as positive. The total number of BrdU-labeled cells per hippocampal granule cell layer and subgranular zone were determined using diaminobenzadine stained tissues. Overestimation was corrected using the Abercrombie method for nuclei with empirically determined average diameter of 13 um within a 40 um section.
# [6] = tested on: human neural stem cells (hNSCs); test: Anti-proliferative effects on human neural stem cell clusters (area over fourteen days); type: cell-based; conditions: hNSC clusters after 14 days; basal media control 164%
# Source text: 7, 2006 (incorporated by reference). […] Cell clusters were imaged and their area measured over fourteen days. […] As the results described in Example 3 indicate, reduction in growth is not due to increased toxicity or reduced survival, and therefore the observed reduced growth of the cell clusters results from decreased proliferation of human neural stem cells in the presence of the HDac inhibitor.
# [7] = biological target: mGluR2 (Homo sapiens, UniProt Q14416); conditions: antagonist; read-out: IC50 value against mGluR2; cited from earlier work
# Chain of mGluR2 (Q14416 19-872): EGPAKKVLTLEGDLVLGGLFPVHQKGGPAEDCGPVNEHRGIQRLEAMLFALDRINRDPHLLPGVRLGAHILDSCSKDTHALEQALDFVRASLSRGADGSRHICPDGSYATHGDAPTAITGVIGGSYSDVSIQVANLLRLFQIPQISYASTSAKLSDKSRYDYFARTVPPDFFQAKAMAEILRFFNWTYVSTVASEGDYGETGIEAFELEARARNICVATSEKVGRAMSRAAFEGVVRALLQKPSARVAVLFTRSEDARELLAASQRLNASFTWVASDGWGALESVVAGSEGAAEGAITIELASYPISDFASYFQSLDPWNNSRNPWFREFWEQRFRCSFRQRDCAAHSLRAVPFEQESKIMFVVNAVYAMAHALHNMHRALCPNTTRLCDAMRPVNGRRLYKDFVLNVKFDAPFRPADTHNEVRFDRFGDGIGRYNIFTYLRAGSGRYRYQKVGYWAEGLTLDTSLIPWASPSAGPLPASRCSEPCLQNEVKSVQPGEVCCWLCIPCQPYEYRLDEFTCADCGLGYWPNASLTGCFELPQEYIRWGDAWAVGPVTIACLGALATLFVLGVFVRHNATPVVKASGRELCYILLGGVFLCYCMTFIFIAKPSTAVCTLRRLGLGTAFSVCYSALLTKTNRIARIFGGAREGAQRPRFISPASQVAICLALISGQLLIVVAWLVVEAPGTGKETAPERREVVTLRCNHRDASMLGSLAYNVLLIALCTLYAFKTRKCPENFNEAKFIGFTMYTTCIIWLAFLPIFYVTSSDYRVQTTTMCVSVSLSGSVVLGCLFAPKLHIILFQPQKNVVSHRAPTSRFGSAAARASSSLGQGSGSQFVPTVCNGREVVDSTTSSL
# [8] = biological target: mGluR3 (Homo sapiens, UniProt Q14832); conditions: antagonist; read-out: IC50 value against mGluR3; cited from earlier work
# Chain of mGluR3 (Q14832 23-879): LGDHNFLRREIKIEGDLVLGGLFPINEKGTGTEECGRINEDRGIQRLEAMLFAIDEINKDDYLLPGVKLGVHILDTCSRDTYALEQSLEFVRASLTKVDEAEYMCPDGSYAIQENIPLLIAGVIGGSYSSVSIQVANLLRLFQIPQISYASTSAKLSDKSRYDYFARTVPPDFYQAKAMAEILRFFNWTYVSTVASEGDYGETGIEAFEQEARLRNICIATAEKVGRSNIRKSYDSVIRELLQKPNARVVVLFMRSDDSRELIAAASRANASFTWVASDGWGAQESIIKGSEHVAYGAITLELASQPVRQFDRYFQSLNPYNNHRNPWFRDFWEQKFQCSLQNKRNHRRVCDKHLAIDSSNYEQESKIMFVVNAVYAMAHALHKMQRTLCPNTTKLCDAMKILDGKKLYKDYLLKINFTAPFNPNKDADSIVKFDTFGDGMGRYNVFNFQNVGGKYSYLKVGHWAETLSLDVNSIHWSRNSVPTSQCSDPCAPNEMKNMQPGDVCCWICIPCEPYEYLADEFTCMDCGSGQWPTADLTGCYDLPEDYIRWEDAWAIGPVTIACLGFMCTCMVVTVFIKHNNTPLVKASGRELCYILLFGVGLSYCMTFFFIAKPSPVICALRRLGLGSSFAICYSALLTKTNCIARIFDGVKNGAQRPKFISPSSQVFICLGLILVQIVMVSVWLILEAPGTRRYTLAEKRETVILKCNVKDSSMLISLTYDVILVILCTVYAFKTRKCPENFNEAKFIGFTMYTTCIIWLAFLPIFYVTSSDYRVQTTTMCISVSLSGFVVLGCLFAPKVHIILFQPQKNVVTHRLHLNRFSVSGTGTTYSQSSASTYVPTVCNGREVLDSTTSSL
# [9] = tested on: Group I or Group III receptors; conditions: at sub-mM concentrations; cited from earlier work
# [10] = biological target: human mGlu2 (Homo sapiens, UniProt Q14416); conditions: agonist; low nanomolar range; read-out: EC50 values against human mGlu2 receptors in vitro; cited from earlier work
# Chain of human mGlu2 (Q14416 19-872): as the sequence (Q14416 19-872) above
# [11] = biological target: human mGlu3 (Homo sapiens, UniProt Q14832); conditions: agonist; low nanomolar range; read-out: EC50 values against human mGlu3 receptors in vitro; cited from earlier work
# Chain of human mGlu3 (Q14832 23-879): as the sequence (Q14832 23-879) above
structure (smiles),measurement,setting,value
"N[C@](CC1c2ccccc2Oc2ccccc21)(C(=O)O)[C@H]1C[C@@H]1C(=O)O [LY341495, (2S)-2-amino-2-(1S,2S-2-carboxycycloprop-1-yl)-3-(xanth-9-yl) propanoic acid]","activity against KA, AMPA, and NMDA iGlu receptors",[1],substantially inactive
"CCCC(CCC)C(=O)O [Valproic acid, 2-propylpentanoic acid]",differentiation along a neuronal lineage (in words),[2],continues to promote neuronal differentiation
same,pEC50,"[3]; Homo sapiens, Neural stem cell, highest tested concentration approximately 10.0 μM",< 5.00
same,expression of promoters for the neurofilament high (NFH) and growth associated protein 43 (GAP43) genes,[4],promote expression
same,"neurogenic activity, activation of the rat NeuroD1, GluR2, NFH and GAP43 promoters",[4],neurogenic
same,proliferation in the dentate gyrus (proportion of BrdU-positive cells),[5],significantly decreased proliferation
same,"area occupied by cells, percent of the starting area",[6],86%
"CC(/C=C/C(=O)NO)=C\[C@@H](C)C(=O)c1ccc(N(C)C)cc1 [Trichostatin A, trichostatin A]",pEC50,"[2]; cultured hNSCs, two experiments (Run A, Run B), normalized to neuronal positive control",~8.46
same,differentiation along a neuronal lineage (in words),[2],permits differentiation of cells along a neuronal lineage
same,pEC50,[3]; highest concentration tested approximately 31.6 nM,< 7.50
Nc1ccccc1NC(=O)c1ccc(CNC(=O)OCc2cccnc2)cc1 [MS-275],expression of promoters for the neurofilament high (NFH) and growth associated protein 43 (GAP43) genes,[4],promote expression
same,"neurogenic activity, activation of the rat NeuroD1, GluR2, NFH and GAP43 promoters",[4],neurogenic
"NC1(C(=O)O)CCc2cc(P(=O)(O)O)ccc21 (racemic) [APICA, (RS)-1-amino-5-phosphonoindan-1-carboxylic acid]",pIC50,[7],~4.52
same,pIC50,[8],~4.52
same,activity against Group I or Group III receptors,[9],no appreciable activity
"N[C@@]1(C(=O)O)CO[C@H]2[C@H](C(=O)O)[C@H]21 [LY379268, (−)-2-Oxa-4-aminobicyclohexane-4,6-dicarboxylic acid]",pEC50,[10],> 8.00
same,pEC50,[11],> 8.00
